These results are taken from ChEMBL document CHEMBL3046894, “Synthesis and Herbicidal Activity of Pyrimidinyl Salicylic and Thiosalicylic Acids” (J Pestic Sci, 1996).

Common to all, as to type: functional, organism-based
In assay [1] the test system is Chenopodium album. The experiment in a line: Post-emergence herbicidal activity against Chenopodium album assessed as growth inhibition at 25 g a.i/10 a applied 11 days after germination as foliar spray.
The subject of assay [2] is Cyperus iria. The assay can be described thus: Pre-emergence herbicidal activity against Cyperus iria assessed as growth inhibition at 25 g a.i/10 a.
Assay [3] deals with Digitaria sanguinalis. The experiment in a line: Post-emergence herbicidal activity against Digitaria sanguinalis (hairy crabgrass) assessed as growth inhibition at 25 g a.i/10 a applied 11 days after germination as foliar spray.
The subject of assay [4] is Persicaria nodosa. The experiment in a line: Pre-emergence herbicidal activity against Persicaria nodosa assessed as growth inhibition at 25 g a.i/10 a.
Assay [5] has as its system Digitaria sanguinalis. The experiment in a line: Pre-emergence herbicidal activity against Digitaria sanguinalis (hairy crabgrass) assessed as growth inhibition at 25 g a.i/10 a.
For assay [6], the system named is Cyperus iria. The assay can be described thus: Post-emergence herbicidal activity against Cyperus iria assessed as growth inhibition at 25 g a.i/10 a applied 11 days after germination as foliar spray.
For assay [7], the system named is Amaranthus retroflexus. The experiment in a line: Post-emergence herbicidal activity against Amaranthus retroflexus assessed as growth inhibition at 25 g a.i/10 a applied 11 days after germination as foliar spray.
Assay [8] has as its system Echinochloa crus-galli. The experiment in a line: Pre-emergence herbicidal activity against Echinochloa crus-galli (barnyard grass) assessed as growth inhibition at 25 g a.i/10 a.
Assay [9] has as its system Chenopodium album. The experiment in a line: Pre-emergence herbicidal activity against Chenopodium album assessed as growth inhibition at 25 g a.i/10 a.
Assay [10] has as its system Amaranthus retroflexus. The assay can be described thus: Pre-emergence herbicidal activity against Amaranthus retroflexus assessed as growth inhibition at 25 g a.i/10 a.
In assay [11] the test system is Persicaria nodosa. The experiment in a line: Post-emergence herbicidal activity against Persicaria nodosa assessed as growth inhibition at 25 g a.i/10 a applied 11 days after germination as foliar spray.
In assay [12] the test system is Echinochloa crus-galli. The assay can be described thus: Post-emergence herbicidal activity against Echinochloa crus-galli (barnyard grass) assessed as growth inhibition at 25 g a.i/10 a applied 11 days after germination as foliar spray.

Activity calls are given as the source filed them. No cut-off for these calls is given here.

With `COc1cc(OC)nc(Oc2ccc(F)cc2C(=O)O)n1`, the “growth inhibition (GI)” value in the assay on Chenopodium album [1], with Cyperus iria [2], in the assay on Persicaria nodosa [4], in the assay with Digitaria sanguinalis [5], with Cyperus iria [6] and with Amaranthus retroflexus [7] was “Active” throughout. In addition, the “growth inhibition (GI)” value in the assay with Echinochloa crus-galli [8], in the assay on Chenopodium album [9], in the assay with Amaranthus retroflexus [10], with Persicaria nodosa [11] and with Echinochloa crus-galli [12] was “Active” each time. Also, in the assay on Digitaria sanguinalis [3], the “growth inhibition (GI)” value was “inactive”.
Take `COc1cc(OC)nc(Oc2ccc(OC(C)C)cc2C(=O)O)n1`: the “growth inhibition (GI)” value in the assay on Chenopodium album [1], with Cyperus iria [2], with Digitaria sanguinalis [3], with Persicaria nodosa [4], with Digitaria sanguinalis [5] and with Amaranthus retroflexus [7] was “inactive” in each case. The “growth inhibition (GI)” value in the assay on Echinochloa crus-galli [8], with Chenopodium album [9] and in the assay with Amaranthus retroflexus [10] was “inactive” in each case. The “growth inhibition (GI)” value in the assay with Cyperus iria [6], in the assay with Persicaria nodosa [11] and in the assay on Echinochloa crus-galli [12] was “Active” throughout.
`COc1cc(OC)nc(Oc2c(C)cccc2C(=O)O)n1`: the “growth inhibition (GI)” value in the assay on Chenopodium album [1], with Digitaria sanguinalis [3], in the assay with Persicaria nodosa [4], with Digitaria sanguinalis [5] and in the assay on Echinochloa crus-galli [12] was “inactive” throughout. Further, the “growth inhibition (GI)” value with Cyperus iria [2], with Cyperus iria [6], with Amaranthus retroflexus [7], with Echinochloa crus-galli [8], in the assay with Chenopodium album [9] and in the assay with Amaranthus retroflexus [10] was “Active” throughout. Further, the “growth inhibition (GI)” value with Persicaria nodosa [11] is “Active”.
As to `COc1cc(OC)nc(Oc2cccc(-n3cccc3)c2C(=O)O)n1`, the “growth inhibition (GI)” value with Chenopodium album [1], with Cyperus iria [2], in the assay on Digitaria sanguinalis [3], with Persicaria nodosa [4], in the assay on Digitaria sanguinalis [5] and in the assay with Cyperus iria [6] was “Active” each time. The “growth inhibition (GI)” value in the assay with Amaranthus retroflexus [7], in the assay on Echinochloa crus-galli [8], with Chenopodium album [9], with Amaranthus retroflexus [10], in the assay on Persicaria nodosa [11] and with Echinochloa crus-galli [12] was “Active” each time.
With `COc1cc(OC)nc(Oc2ccc(C)cc2C(=O)O)n1`, the “growth inhibition (GI)” value with Chenopodium album [1], in the assay on Digitaria sanguinalis [3], in the assay on Persicaria nodosa [4], in the assay with Digitaria sanguinalis [5], in the assay on Cyperus iria [6] and with Echinochloa crus-galli [8] was “inactive” each time. Moreover, the “growth inhibition (GI)” value with Cyperus iria [2], in the assay with Amaranthus retroflexus [7], in the assay on Chenopodium album [9], in the assay on Amaranthus retroflexus [10], with Persicaria nodosa [11] and in the assay on Echinochloa crus-galli [12] was “Active” throughout.
As to `COc1cc(OC)nc(Oc2ccc(C(F)(F)F)cc2C(=O)O)n1`, the “growth inhibition (GI)” value in the assay with Chenopodium album [1], with Cyperus iria [2], with Digitaria sanguinalis [3], in the assay on Persicaria nodosa [4], with Digitaria sanguinalis [5] and in the assay on Cyperus iria [6] was “inactive” in each case. The “growth inhibition (GI)” value in the assay with Echinochloa crus-galli [8], in the assay on Chenopodium album [9], in the assay with Amaranthus retroflexus [10], with Persicaria nodosa [11] and with Echinochloa crus-galli [12] was “inactive” each time. In addition, in the assay with Amaranthus retroflexus [7], the “growth inhibition (GI)” value was “Active”.
As for `COc1cc(OC)nc([S+]([O-])c2cccc(Cl)c2C(=O)O)n1` (configuration not stated), the “growth inhibition (GI)” value in the assay on Chenopodium album [1], in the assay on Cyperus iria [2], in the assay with Digitaria sanguinalis [5], in the assay with Cyperus iria [6], with Amaranthus retroflexus [7] and with Chenopodium album [9] was “Active” throughout. Further, the “growth inhibition (GI)” value in the assay with Amaranthus retroflexus [10], with Persicaria nodosa [11] and with Echinochloa crus-galli [12] was “Active” throughout. Besides, the “growth inhibition (GI)” value with Digitaria sanguinalis [3], in the assay on Persicaria nodosa [4] and with Echinochloa crus-galli [8] was “inactive” each time.
On to `COc1cc(OC)nc(Oc2cccc(-c3ccccc3)c2C(=O)O)n1`, for which the “growth inhibition (GI)” value in the assay on Chenopodium album [1], with Cyperus iria [2], in the assay with Digitaria sanguinalis [3], in the assay on Persicaria nodosa [4], in the assay with Digitaria sanguinalis [5] and in the assay with Cyperus iria [6] was “Active” in each case. For the same molecule, the “growth inhibition (GI)” value in the assay on Amaranthus retroflexus [7], in the assay with Echinochloa crus-galli [8], with Chenopodium album [9], in the assay with Amaranthus retroflexus [10], in the assay with Persicaria nodosa [11] and in the assay with Echinochloa crus-galli [12] was “Active” in each case.
In the case of `CCSc1cccc(Oc2nc(OC)cc(OC)n2)c1C(=O)O`, the “growth inhibition (GI)” value in the assay with Chenopodium album [1], in the assay on Cyperus iria [6], in the assay on Amaranthus retroflexus [7], in the assay on Amaranthus retroflexus [10], with Persicaria nodosa [11] and with Echinochloa crus-galli [12] was “Active” each time. In addition, the “growth inhibition (GI)” value in the assay with Cyperus iria [2], in the assay with Digitaria sanguinalis [3], with Persicaria nodosa [4], in the assay with Digitaria sanguinalis [5], in the assay on Echinochloa crus-galli [8] and in the assay on Chenopodium album [9] was “inactive” in each case.
On to `CCCOc1cccc(Oc2nc(OC)cc(OC)n2)c1C(=O)O`, for which the “growth inhibition (GI)” value in the assay with Chenopodium album [1], in the assay on Cyperus iria [2], in the assay with Digitaria sanguinalis [3], with Persicaria nodosa [4], with Digitaria sanguinalis [5] and in the assay on Cyperus iria [6] was “Active” in each case. Besides, the “growth inhibition (GI)” value in the assay on Amaranthus retroflexus [7], in the assay on Echinochloa crus-galli [8], in the assay with Chenopodium album [9], in the assay on Amaranthus retroflexus [10], with Persicaria nodosa [11] and in the assay with Echinochloa crus-galli [12] was “Active” each time.
With `CCCCOc1cccc(Oc2nc(OC)cc(OC)n2)c1C(=O)O`, the “growth inhibition (GI)” value in the assay on Chenopodium album [1], in the assay on Cyperus iria [2], in the assay with Digitaria sanguinalis [3], in the assay with Digitaria sanguinalis [5], with Cyperus iria [6] and with Amaranthus retroflexus [7] was “Active” throughout. For the same molecule, the “growth inhibition (GI)” value in the assay with Echinochloa crus-galli [8], in the assay on Chenopodium album [9], in the assay with Amaranthus retroflexus [10], in the assay on Persicaria nodosa [11] and with Echinochloa crus-galli [12] was “Active” each time. Further, the “growth inhibition (GI)” value with Persicaria nodosa [4] was “inactive”.
